Data on 19 compounds can be found in patent US7022716B2, “Cyclic amine phenyl beta-3 adrenergic receptor agonists” (Wyeth, priority 2000, dated 2006).

The target in data set [1] is T1, human β3 adrenergic receptor (Homo sapiens, UniProt P13945).
T1 construct: Full length β3 AR clones (402 amino acids) containing the last 6 amino acids of hβ3-AR are prepared; expressed in transfected cells; host or cells: CHO (Chinese hamster ovary) cells
The data set is described as follows: cAMP (SPA) response in CHO cells transfected with human β3 adrenergic receptor. In kind it is cell-based. Also noted: key: fraction of maximal isoproterenol (10^-5 M) response. The conditions noted are these: maximal response relative to maximal response of isoproterenol at 10^-5 M. In outline: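 Reactions were stopped with 0.2N HCl and neutralised, and cAMP was measured by SPA. Activity is expressed as percent of the maximal 10^−5 M isoproterenol response.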

Each structure is given as a SMILES string. Bounds are passed on as bounds.

T1 sequence (P13945 whole entry): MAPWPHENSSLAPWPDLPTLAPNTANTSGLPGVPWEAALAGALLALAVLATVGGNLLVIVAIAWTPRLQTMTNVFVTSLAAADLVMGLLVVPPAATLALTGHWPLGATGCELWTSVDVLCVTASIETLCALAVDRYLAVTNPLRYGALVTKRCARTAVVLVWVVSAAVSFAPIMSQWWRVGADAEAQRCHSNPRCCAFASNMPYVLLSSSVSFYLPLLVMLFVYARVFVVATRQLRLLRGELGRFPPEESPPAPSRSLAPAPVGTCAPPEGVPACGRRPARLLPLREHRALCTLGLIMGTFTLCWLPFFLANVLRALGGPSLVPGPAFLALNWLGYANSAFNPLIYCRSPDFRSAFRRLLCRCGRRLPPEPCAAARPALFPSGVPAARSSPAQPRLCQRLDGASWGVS

Consider `CC(C)(C)OC(=O)CN1C(=O)SC(Cc2ccc(N3CCC(NC[C@H](O)c4ccc(O)c(NS(C)(=O)=O)c4)CC3)cc2)C1=O` (stereo partly drawn) [Example 64, 5-[[4-[4-[[(R)-2-Hydroxy-2-[4-hydroxy-3-[(methylsulfonyl)amino]phenyl]ethyl]amino]-1-piperidinyl]phenyl]methyl]-2,4-dioxo-3-thiazolidineacetic acid tert-butyl-ester], for which the melting point lay in the range of 130 to 132 °C. Also, the “IA(β3)” value in data set [1] was determined as 1. The corresponding values for `CCOC(=O)CN1C(=O)SC(Cc2ccc(N3CCC(NC[C@H](O)c4ccc(O)c(NS(C)(=O)=O)c4)CC3)cc2)C1=O` (stereo partly drawn) [Example 66, 5-[[4-[4-[[(R)-2-Hydroxy-2-[4-hydroxy-3-[(methylsulfonyl)amino]phenyl]ethyl]amino]-1-piperidinyl]phenyl]methyl]-2,4-dioxo-3-thiazolidineacetic acid ethyl-ester] are 153 to 155 °C and 0.81. The corresponding values for `O=C1NC(=O)C(=Cc2ccc(N3CCC(NC[C@H](O)COc4cccc5[nH]c(=O)[nH]c45)CC3)c(F)c2)S1` [Example 69, 5-(3-Fluoro-4-{4-[(2S)-2-hydroxy-3-(2-oxo-2,3-dihydro-1H-benzoimidazol-4-yloxy)-propylamino]-piperidin-1-yl}-benzylidene)-thiazolidine-2,4-dione] are 162 to 164 °C and 1.

On to `CS(=O)(=O)Nc1cc(C(O)CNC2CCN(c3ccc(C=C4SC(=O)NC4=O)cc3Br)CC2)ccc1O` (centres unmarked) [Example 70, N-[5-(2-{1-[2-Bromo-4-(2,4-dioxo-thiazolidin-5-ylidenemethyl)-phenyl]-piperidin-4-ylamino}-1-hydroxy-ethyl)-2-hydroxy-phenyl]-methanesulfonamide], for which the melting point is over 200 °C. For the same compound, the “IA(β3)” value in data set [1] turned out to be 1.2. The corresponding values for `CS(=O)(=O)Nc1cc(C(O)CNC2CCN(c3ccc(C=C4SC(=O)NC4=O)cc3F)CC2)ccc1O` (centres unmarked) [Example 71, N-[5-(2-{1-[4-(2,4-Dioxo-thiazolidin-5-ylidenemethyl)-2-fluoro-phenyl]-piperidin-4-ylamino}-1-hydroxy-ethyl)-2-hydroxy-phenyl]-methanesulfonamide] are over 225 °C and 1.2. Turning to `O=C1NC(=S)SC1=Cc1ccc(N2CCC(NC[C@H](O)COc3ccccc3)CC2)cc1` [Example 72, 5-{4-[4-((2S)-2-Hydroxy-3-phenoxy-propylamino)-piperidin-1-yl]-benzylidene}-2-thioxo-thiazolidin-4-one], the melting point was > 220 °C (dec.). The “IA(β3)” value in data set [1] was found to be 0.68.

The compound `O=C1NC(=O)C(Cc2ccc(N3CCC(NC[C@H](O)COc4ccccc4)CC3)cc2)S1` (stereo partly drawn) [Example 73, 5-[4-[4-((2S)-2-Hydroxy-3-phenoxy-propylamino)-piperidin-1-yl]-benzyl}-thiazolidin-2,4-dione] returned a melting point of 218 to 220 °C. In addition, the “IA(β3)” value in data set [1] is 0.71.

As for `O=C1NC(=O)C(Cc2ccc(N3CCC(NCC(O)COc4ccc(OCc5ccccc5)cc4)CC3)cc2)S1` [Example 74, 5-(4-{4-[(2S)-3-(4-Benzyloxy-phenoxy)-2-hydroxy-propylamino]-piperidin-1-}-benzyl)-thiazolidine-2,4-dione], the melting point is > 70 °C (dec.). Besides, in data set [1], the “IA(β3)” value is 0.23. The corresponding values for `O=C1NC(=O)C(=Cc2ccc(N3CCC(NC[C@H](O)COc4cccc5[nH]c(=O)[nH]c45)CC3)cc2)S1` [Example 75, 5-(4-{4-[(2S)-2-Hydroxy-3-(2-oxo-2,3-dihydro-1H-benzoimidazol-4-yloxy)-propylamino]-piperidin-1-yl}-benzylidene)-thiazolidine-2,4-dione] are > 240 °C (dec.) and 1.08. The corresponding values for `O=C1NC(=O)C(=Cc2ccc(N3CCC(NC[C@H](O)COc4ccc(O)cc4)CC3)cc2)S1` [Example 76, 5-(4-{4-[(2S)-2-Hydroxy-3-(4-hydroxy-phenoxy)-propylamino]-piperidin-1-yl}-benzylidene)-thiazolidine-2,4-dione] are > 208 °C (dec.) and 0.94. The corresponding values for `O=C1NC(=O)C(Cc2ccc(N3CCC(NC[C@H](O)c4cccc(Cl)c4)CC3)cc2)S1` (stereo partly drawn) [Example 79, 5-(4-{4-[2-(3-Chloro-phenyl)-(2R)-2-hydroxyethylamino}-piperidin-1-yl}-benzyl)-thiazolidine-2,4-dione] are over 195 °C and 0.56. As to `O=C1NC(=O)C(Cc2ccc(N3CCC(NC[C@H](O)COc4cccc5[nH]c(=O)[nH]c45)CC3)cc2)S1` (stereo partly drawn) [Example 80, 5-(4-{4-[(2S)-2-Hydroxy-3-(2-oxo-2,3-dihydro-1H-benzoimidazol-4-yloxy)-propylamino]-piperidin-1-yl}-benzyl)-thiazolidine-2,4-dione], the melting point is 173 to 175 °C (dec.). The “IA(β3)” value in data set [1] came to 1.1. The corresponding values for `O=C1NC(=O)C(Cc2ccc(N3CCC(NC[C@H](O)COc4ccc(O)cc4)CC3)cc2)S1` (stereo partly drawn) [Example 81, 5-(4-{4-[(2S)-2-Hydroxy-3-(4-hydroxy-phenoxy)-propylamino]-piperidin-1-yl}-benzyl)-thiazolidine-2,4-dione] are > 160 °C (dec.) and 0.89. For `O=C1NC(=O)C(=Cc2ccc(N3CCC(NC[C@H](O)COc4ccccc4)CC3)cc2)S1` [Example 83, 5-{4-[4-((2S)-2-Hydroxy-3-phenoxy-propylamino)-piperidin-1-yl]-benzylidene}-thiazolidine-2,4-dione], in that order: 208 to 210 °C and 0.68. For `CS(=O)(=O)Nc1cc(C(O)CNC2CCN(c3ccc(C=C4NC(=O)NC4=O)cc3)CC2)ccc1O` (centres unmarked) [Example 85, N-[5-(2-{1-[4-(2,5-Dioxo-imidazolidin-4-ylidenemethyl)-phenyl]-piperidin-4-ylamino}-1-hydroxy-ethyl)-2-hydroxy-phenyl]-methanesulfonamide], in that order: > 201 °C (dec.) and 0.94. Take `O=C1NC(=O)C(Cc2ccc(N3CCC(NCC(O)COc4cccc5[nH]c(=O)[nH]c45)CC3)cc2)N1` (centres unmarked) [Example 86]: the melting point was > 132 °C (dec.). Besides, in data set [1], the “IA(β3)” value is on record as 0.69.

Regarding `O=C1NC(=O)C(Cc2ccc(N3CCC(NC[C@H](O)c4csc(C(F)(F)F)n4)CC3)cc2)S1` (stereo partly drawn) [Example 106, 5-{4-[4-({(2S)-2-Hydroxy-2-[2-(trifluoromethyl)-1,3-thiazol-4-yl]ethyl}amino)piperidine-1-yl]benzyl}-1,3-thiazolidine-2,4-dione], the melting point was 108 to 113 °C. The same measure, in the same setting: the value for `O=C1NC(=O)C(Cc2ccc(N3CCC(NC[C@H](O)c4cc(-c5ccc(Cl)c(Cl)c5)no4)CC3)cc2)S1` (stereo partly drawn) [Example 110, 5-{4-[4-({(2S)-2-[3-(3,4-Dichlorophenyl)isoxazol-5-yl]-2-hydroxyethyl}-amino)piperidine-1-yl}benzyl}-1,3-thiazole-2,4-dione] was 110 °C. Same read-out and setting: then `Cc1ccc(OC[C@@H](O)CNC2CCN(c3ccc(CC4SC(=O)NC4=O)cc3)CC2)cn1` (stereo partly drawn) [Example 128, 5-(4-{4-[(2S)-2-Hydroxy-3-(6-methyl-pyridin-3-yloxy)-propylamino]-piperidin-1-yl}-benzyl)-thiazolidine-2,4-dione], with 87 °C (dec.).
